Results published in patent publication US8637237B2, “Methods, compositions, and systems for the identification of species-specific or developmental stage-specific insecticides” (The University of North Carolina at Greensboro, priority 2003, dated 2014).

Target: T1, GRdEcR/RXR (Drosophila melanogaster, UniProt P34021, E261P/P331L/Q260P/V259R)
T1 construct: ligation of a Not I-Bam HI fragment containing the DBD and LBD of a modified EcR cDNA, EcRnx; expressed in transfected cells; host or cells: CHO
T1 sequence (P34021 259-878 V259R/Q260P/E261P/P331L limits assumed): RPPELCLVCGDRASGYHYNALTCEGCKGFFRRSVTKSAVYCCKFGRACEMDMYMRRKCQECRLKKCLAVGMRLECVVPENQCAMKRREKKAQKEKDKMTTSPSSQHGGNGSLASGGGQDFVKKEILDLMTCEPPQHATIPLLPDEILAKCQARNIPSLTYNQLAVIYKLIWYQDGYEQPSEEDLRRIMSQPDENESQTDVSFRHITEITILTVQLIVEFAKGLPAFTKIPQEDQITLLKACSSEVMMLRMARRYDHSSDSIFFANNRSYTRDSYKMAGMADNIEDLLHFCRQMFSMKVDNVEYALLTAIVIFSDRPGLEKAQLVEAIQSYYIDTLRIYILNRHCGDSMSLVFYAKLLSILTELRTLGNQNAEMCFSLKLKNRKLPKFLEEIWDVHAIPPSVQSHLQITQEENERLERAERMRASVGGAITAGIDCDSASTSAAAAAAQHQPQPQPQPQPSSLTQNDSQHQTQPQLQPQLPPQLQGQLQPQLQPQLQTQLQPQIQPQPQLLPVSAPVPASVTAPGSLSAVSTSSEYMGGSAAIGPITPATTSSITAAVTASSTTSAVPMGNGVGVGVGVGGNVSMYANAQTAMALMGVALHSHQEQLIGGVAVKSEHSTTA
T1 sequence (P28700 1-467 partner): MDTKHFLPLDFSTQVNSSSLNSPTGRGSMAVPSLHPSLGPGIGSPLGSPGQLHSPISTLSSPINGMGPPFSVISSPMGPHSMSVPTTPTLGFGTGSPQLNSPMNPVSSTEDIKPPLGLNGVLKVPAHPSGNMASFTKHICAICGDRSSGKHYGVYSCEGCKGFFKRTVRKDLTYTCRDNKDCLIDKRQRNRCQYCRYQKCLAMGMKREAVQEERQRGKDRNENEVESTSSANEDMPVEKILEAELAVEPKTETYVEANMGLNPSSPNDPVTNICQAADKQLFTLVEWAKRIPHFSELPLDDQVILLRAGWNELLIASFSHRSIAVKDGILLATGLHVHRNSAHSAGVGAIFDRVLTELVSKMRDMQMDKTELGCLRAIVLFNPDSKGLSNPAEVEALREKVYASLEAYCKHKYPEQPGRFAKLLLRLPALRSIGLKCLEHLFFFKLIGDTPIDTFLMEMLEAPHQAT
Test: GRdEcR (GEcEc) chimera with RXR, (EcRE)5-ΔMTV reporter in CHO cells
Type: cell-based
Experimental: These experiments employed a mammalian cell culture system using Chinese hamster ovary cells (CHO) to evaluate the transcriptional function of Drosophila melanogaster EcR and USP using methods described previously (U.S. Patent Application Publication No: 2005/0049230; Henrich et al, 2003). Cells were seeded in 6-well polypropylene culture plates (Falcon) with 10^5 cells per well on the day prior to transfection. Transfection was subsequently performed using either calcium phosphate (Kitareewan et al., 1996, Mol. Biol. Cell, 7:1153-1196) or a GenePorter reagent (Gene Therapy Systems, Inc; San Diego, Calif.) following manufacturer's protocols. Each well received 1.25 μg of (EcRE)5-ΔMTV-CAT (five copies of the hsp27 EcRE inserted into an mouse mammary tumor virus (MTV) promoter upstream of the chloramphenicol acetyltransferase (CAT) gene) or (EcRE)5-ΔMTV-LUC (the same promoter attached to firefly luciferase), 1.25 μg of pCH111 (SV40 early promoter linked to the β-galactosidase gene) to normalize CAT activity, and 0.25 μg of each expression plasmid (EcR, FXR, RXR, USP) that was tested. The cells were incubated with plasmid DNA for seven hours and then washed with 1×PBS. Muristerone A (murA; Alexis Biochemicals) or 20-hydroxyecdysone (20E; Sigma) dissolved in ethanol to a concentration of 10 mM was diluted as necessary to the final assay concentration (FAC) in 2 ml of fresh incubation medium that was then applied to the cells. Similarly, JHIII (Sigma) was dissolved in dimethyl sulfoxide (DMSO) to a concentration of […] and diluted into the incubation medium to its final assay concentration (20, 40, 80, 160 μM). […] A corresponding volume of ethanol and DMSO were added to control cells for all experiments. For all experiments, the cells were allowed to incubate with the medium for 24 hours before collection and cell lysates were prepared by described methods (Kitareewan et al., 1996). Both β-galactosidase and CAT reporter activity were measured based on previously used methods (Kitareewan et al, 1996). Luciferase assays using luciferrin followed the specifications of the manufacturer.
Transcriptional activity, measured as ^14C-chloramphenicol counts (for measuring CAT activity) or relative luciferase activity (RLU) was quantified for each cell lysate. The counts were then normalized by adjusting for differences in β-galactosidase activity, since β-galactosidase expression is controlled by a constitutive promoter and provides an estimate of cell mass. Data were normalized as fold-induction based on differences in reporter gene activity between hormonally treated and control cells.
In an initial series of studies, a GRdEcR chimera that consists of the rat glucocorticoid receptor (GR) activation domain attached to the EcR DBD and LBD (FIG. 1) was cotransfected along with mRXRα into CHO cells. The response of transfected cells to murA was measured using a (EcRE)5-ΔMTV-CAT reporter plasmid that carries five tandem repeats of the hsp27 EcRE linked to the MTV (mouse mammary tumor virus) promoter and the chloramphenicol acetyltransferase gene (CAT).
The prominent candidate for this JH-responsive macromolecule in insects is the structurally-related ecdysone receptor (EcR). Like FXR, EcR heterodimerizes with RXR and binds to the hsp27 ecdysone-responsive DNA element (Forman et al., 1995), but distinctively activates transcription in response to muristerone A (MurA or MUR), a synthetic ecdysone (Yao et al., 1992). […] In the experiments shown in FIG. 15A, muristerone A (MUR) was added at the indicated doses in ethanol vehicle, and increasing amounts of JH III (12, 25, or 50 μM) were added (underlying triangles). Numbers over bars indicate the ratio of the GEcEc-dependent activity produced by 50 μM JH III in the presence of the indicated dose of MUR to the activity produced by MUR alone. Relative light units (RLU) from firefly luciferase in cell lysates are expressed relative to renilla luciferase (Promega).

**Q.** Which “increase of MurA-induced GEcEc-dependent activity by JH III” value (80 μM JH III added to MurA) does the source give for `COC(=O)/C=C(\C)CC/C=C(\C)CC[C@H]1OC1(C)C` [JHIII, juvenile hormone III] here?
**A.** 3 times

**Q.** And the “response of GEcEc to JH III alone” value (80 μM JH III, no MurA)?
**A.** failed to respond

**Q.** What about the “potentiation of murA response by JHIII” value (20, 40, 80, 160 μM JHIII at submaximal murA (0.1 μM and 1 μM)) of the same compound?
**A.** potentiated the response of murA in a dose-dependent manner

**Q.** What about the “MurA + JHIII (JHIII potentiation)” value (GRdEcR/RXR, 0.1 μM murA + 80 μM JHIII) of the same compound?
**A.** + ((+) indicates observed potentiation that exceeds 2-fold above the levels observed with ecdysteroid alone)

**Q.** And the “effect of JHIII alone on transcription” value (no murA)?
**A.** did not show an effect

**Q.** With `CC(C)CC[C@@H](O)[C@](C)(O)[C@H]1CC[C@@]2(O)C3=CC(=O)[C@]4(O)C[C@@H](O)[C@@H](O)C[C@]4(C)[C@H]3[C@H](O)C[C@]12C` [murA, muristerone A] as the compound, how does the “lowest murA dosage evoking a detectable response” value (GRdEcR + RXR, CAT reporter) read?
**A.** 0.1 µM

**Q.** And the “MurA (inducibility)” value (GRdEcR/RXR, 0.1 μM murA)?
**A.** + ((+) designates a change in transcriptional level that exceeds 2.5-fold)

**Q.** juvocimene was tested. Which “potentiation of MUR-inducible GEcEc-dependent activity” value (25 μM test compound, 0.2 μM muristerone A) did it give?
**A.** between two and four times
